# Reference: ChEMBL document CHEMBL5634148, “Synthesis and evaluation of novel pleuromutilin derivatives targeting the 50S ribosomal subunit for antibacterial ability” (Eur J Med Chem, 2023)
# Activity calls are given as the source filed them. The rule behind the calls is not given here.
# Key:
# [1] = test system: Staphylococcus aureus; experiment: Antibacterial activity against methicillin-resistant Staphylococcus aureus ATCC 29213 assessed as reduction in bacterial count at 6 times MIC incubated for 24 hrs by time kill assay; type: functional
# [2] = test system: Staphylococcus aureus; experiment: Antibacterial activity against Staphylococcus aureus assessed as reduction in bacterial count at 1 to 6 times MIC incubated for 24 hrs by time kill assay; type: functional
# [3] = test system: Staphylococcus aureus; experiment: Bactericidal activity against methicillin-resistant Staphylococcus aureus ATCC 29213 incubated for 24 hrs by time kill assay; type: functional, organism-based
# [4] = test system: Staphylococcus aureus; experiment: Bactericidal activity against Staphylococcus aureus incubated for 24 hrs by time kill assay; type: functional, organism-based
# [5] = Toxicity in po-dosed Wistar rat measured for 14 days by H and E staining based analysis; details: in vivo, time 14 day
# [6] = test system: Staphylococcus aureus; experiment: Antibacterial activity against methicillin-resistant Staphylococcus aureus BNCC 337371 assessed as bacterial growth inhibition incubated for 18 to 24 hrs by NCCLS based assay; type: functional; details: time 18-24 hrs
# [7] = test system: Staphylococcus aureus; experiment: Antibacterial activity against Staphylococcus aureus ATCC 25923 assessed as bacterial growth inhibition incubated for 18 to 24 hrs by NCCLS based assay; type: functional; details: time 18-24 hrs
# [8] = test system: Streptococcus agalactiae; experiment: Antibacterial activity against Streptococcus agalactiae assessed as bacterial growth inhibition incubated for 18 to 24 hrs by NCCLS based assay; type: functional; details: time 18-24 hrs
# [9] = test system: Enterococcus faecalis; experiment: Antibacterial activity against Enterococcus faecalis assessed as bacterial growth inhibition incubated for 18 to 24 hrs by NCCLS based assay; type: functional; details: time 18-24 hrs
# [10] = test system: Escherichia coli; experiment: Antibacterial activity against Escherichia coli CICC 10389 assessed as bacterial growth inhibition incubated for 18 to 24 hrs by NCCLS based assay; type: functional; details: time 18-24 hrs
# [11] = test system: Staphylococcus aureus; experiment: Drug sensitivity against Staphylococcus aureus at 1/4 times MIC measured after 4 passages; type: functional, organism-based
# [12] = Cytotoxicity against human HepG2 cells assessed as cell viability at 200 uM incubated for 6 hrs by CCK8 assay relative to control; type: toxicity, cell-based; details: read-out: Activity
# [13] = Cytotoxicity against HEK293T cells assessed as cell viability at 200 uM incubated for 6 hrs by CCK8 assay relative to control; type: toxicity, cell-based, HEK-293T; details: human, read-out: Activity
# [14] = Cytotoxicity against HEK293T cells assessed as cell viability incubated for 6 hrs by CCK8 assay; type: toxicity, cell-based, HEK-293T; details: human
# [15] = Toxicity in Wistar rat assessed as piloerection at 2000 mg/kg, po measured for 24 hrs; type: organism-based; details: in vivo
# [16] = Toxicity in Wistar rat assessed as physical activity at 2000 mg/kg, po measured for 24 hrs; type: organism-based; details: in vivo
# [17] = Toxicity in Wistar rat assessed as trembling at 2000 mg/kg, po measured for 48 hrs; type: organism-based; details: in vivo
# [18] = Toxicity in Wistar rat assessed as piloerection at 2000 mg/kg, po measured for 48 hrs; type: organism-based; details: in vivo
# [19] = Toxicity in Wistar rat assessed as physical activity at 2000 mg/kg, po measured for 48 hrs; type: organism-based; details: in vivo
# [20] = Toxicity in Wistar rat assessed as body weight loss at 2000 mg/kg, po measured for 14 days; type: organism-based; details: in vivo, 336 h, time 14 day
# [21] = Toxicity in Wistar rat assessed as food intake at 2000 mg/kg, po measured for 14 days; type: organism-based; details: in vivo, 336 h, time 14 day
# [22] = Toxicity in Wistar rat assessed as water consumption at 2000 mg/kg, po measured for 14 days; type: organism-based; details: in vivo, 336 h, time 14 day
# [23] = Toxicity in Wistar rat assessed as fatality at 2000 mg/kg, po measured for 7 days; type: organism-based; details: in vivo, 168 h, time 7 day
# [24] = Toxicity in Wistar rat assessed as absolute heart weight at 2000 mg/kg, po measured after 14 days (reference value: 0.86 +/- 0.09 g); type: organism-based; details: in vivo, 336 h, time 14 day
# [25] = Toxicity in Wistar rat assessed as absolute liver weight at 2000 mg/kg, po measured after 14 days (reference value: 10.02 +/- 0.44 g); type: organism-based; details: in vivo, 336 h, time 14 day
# [26] = Toxicity in Wistar rat assessed as absolute spleen weight at 2000 mg/kg, po measured after 14 days (reference value: 0.61 +/- 0.05 g); type: organism-based; details: in vivo, 336 h, time 14 day
# [27] = Toxicity in Wistar rat assessed as absolute lungs weight at 2000 mg/kg, po measured after 14 days (reference value: 1.38 +/- 0.17 g); type: organism-based; details: in vivo, 336 h, time 14 day
# [28] = Toxicity in Wistar rat assessed as absolute kidneys weight at 2000 mg/kg, po measured after 14 days (reference value: 1.77 +/- 0.16 g); type: organism-based; details: in vivo, 336 h, time 14 day
# [29] = Toxicity in Wistar rat assessed as absolute uterus weight at 2000 mg/kg, po measured after 14 days (reference value: 0.87 +/- 0.06 g); type: organism-based; details: in vivo, 336 h, time 14 day
# [30] = Toxicity in Wistar rat assessed as relative lungs weight at 2000 mg/kg, po measured after 14 days (reference value: 0.62 +/- 0.18 %); type: organism-based; details: in vivo, 336 h, time 14 day
# [31] = Toxicity in Wistar rat assessed as relative kidneys weight at 2000 mg/kg, po measured after 14 days (reference value: 0.91 +/- 0.18 %); type: organism-based; details: in vivo, 336 h, time 14 day
# [32] = Toxicity in Wistar rat assessed as relative uterus weight at 2000 mg/kg, po measured after 14 days (reference value: 0.45 +/- 0.03 %); type: organism-based; details: in vivo, 336 h, time 14 day
# [33] = Toxicity in Wistar rat assessed as congestion in hepatic central vein at 2000 mg/kg, po measured for 14 days by H and E staining based analysis; type: organism-based; details: in vivo, 336 h, time 14 day
# [34] = Toxicity in Wistar rat assessed as hepatocyte fatty degeneration at 2000 mg/kg, po measured for 14 days by H and E staining based analysis; type: organism-based; details: hepatocytes, 336 h, time 14 day
# [35] = Toxicity in Wistar rat assessed as degeneration of alveolar epithelial cells in lungs at 2000 mg/kg, po measured for 14 days by H and E staining based analysis; type: organism-based; details: in vivo, 336 h, time 14 day
# [36] = Toxicity in Wistar rat assessed as necrosis of alveolar epithelial cells in lungs at 2000 mg/kg, po measured for 14 days by H and E staining based analysis; type: organism-based; details: in vivo, 336 h, time 14 day
# [37] = Toxicity in Wistar rat assessed as vascular congestion in lungs at 2000 mg/kg, po measured for 14 days by H and E staining based analysis; type: organism-based; details: in vivo, 336 h, time 14 day
# [38] = test system: Staphylococcus aureus; experiment: Antibacterial activity against methicillin-resistant Staphylococcus aureus infected in neutropenic Balb/c mouse model assessed as reduction in bacterial load in lungs at 40 mg/kg, iv measured after 5 days; type: functional; details: time 5 day
# [39] = test system: Staphylococcus aureus; experiment: Antibacterial activity against methicillin-resistant Staphylococcus aureus infected in neutropenic Balb/c mouse model assessed as reduction in bacterial load in lungs at 15 mg/kg, iv measured after 5 days; type: functional; details: time 5 day
# [40] = test system: Staphylococcus aureus; experiment: Antibacterial activity against methicillin-resistant Staphylococcus aureus infected in neutropenic Balb/c mouse model assessed as reduction in bacterial load in kidney at 40 mg/kg, iv measured after 5 days; type: functional, organism-based; details: time 5.0 day
# [41] = test system: Staphylococcus aureus; experiment: Antibacterial activity against methicillin-resistant Staphylococcus aureus infected in neutropenic Balb/c mouse model assessed as reduction in inflammatory cell infiltration in lungs at 40 mg/kg, iv measured after 5 days; type: functional, organism-based; details: time 5.0 day
# [42] = test system: Staphylococcus aureus; experiment: Antibacterial activity against methicillin-resistant Staphylococcus aureus infected in neutropenic Balb/c mouse model assessed as thickening of alveolar septa in lungs at 40 mg/kg, iv measured after 5 days; type: functional, organism-based; details: time 5.0 day
# [43] = test system: Staphylococcus aureus; experiment: Antibacterial activity against methicillin-resistant Staphylococcus aureus infected in neutropenic Balb/c mouse model assessed as thickening of alveolar walls in lungs at 40 mg/kg, iv measured after 5 days; type: functional, organism-based; details: time 5.0 day
structure (smiles),measurement,setting,value
C=C[C@]1(C)C[C@@H](OC(=O)CSc2ncnc(N(C)C)n2)[C@]2(C)[C@H](C)CC[C@]3(CCC(=O)[C@H]32)[C@@H](C)[C@@H]1O,log(activity),[1],1.72
same,log(activity),[2],2.5
same,Activity,[3],Dose-Dependent Effect
same,Activity,[4],Dose-Dependent Effect
same,LD50 at 336 h,[5],> 2000 mg/kg
same,MIC,[6],0.031 µg/mL
same,MIC,[7],0.031 µg/mL
same,MIC,[8],0.063 µg/mL
same,MIC,[9],32 µg/mL
same,MIC,[10],≥ 64 µg/mL
same,Activity,[11],Active
same,"viability at 6 h, 200 µM",[12],60.2%
same,"viability at 6 h, 200 µM",[13],66.9%
same,CC50 at 6 h,[14],50.1 µM
same,Activity,[15],Toxic
same,Activity,[16],Toxic
same,Activity,[17],Non-Toxic
same,Activity,[18],Non-Toxic
same,Activity,[19],Non-Toxic
same,Activity,[20],Toxic
same,Activity,[21],Toxic
same,Activity,[22],Toxic
same,Activity,[23],Non-Toxic
same,Activity,[24],0.75 g
same,Activity,[25],9.09 g
same,Activity,[26],0.43 g
same,Activity,[27],1.21 g
same,Activity,[28],1.85 g
same,Activity,[29],0.68 g
same,Activity,[30],0.53%
same,Activity,[31],0.74%
same,Activity,[32],0.29%
same,Activity,[33],Toxic
same,Activity,[34],Toxic
same,Activity,[35],Toxic
same,Activity,[36],Toxic
same,Activity,[37],Toxic
same,Activity,[38],2.52 log10CFU/ml
same,Activity,[39],1.82 log10CFU/ml
same,Activity,[40],Active
same,Activity,[41],Active
same,Activity,[42],Active
same,Activity,[43],Active
